From article PMC3059997, “Exploring Indirect Sources of Human Exposure to Perfluoroalkyl Carboxylates (PFCAs): Evaluating Uptake, Elimination, and Biotransformation of Polyfluoroalkyl Phosphate Esters (PAPs) in the Rat” (Environmental Health Perspectives, 2010)

Columns and labels:
[1] = Uptake experiment: diPAP mixture by oral gavage, analytes in whole blood; format: in vivo, Sprague-Dawley rats; conditions: for Tmax / Cmax: diPAP gavage dose, whole blood; for Cmax: mean ± SE, values in parentheses < LOQ but > LOD
Procedure: (§1) This research was conducted under an animal use protocol approved by the University of Toronto Animal Care Committee. All animals were treated humanely and with regard for alleviation of suffering. Sprague-Dawley rats were obtained from Charles River Laboratories Inc. (Sherbrooke, QC, Canada) The animals were singly housed and exposed to a 12/12 hr light/dark cycle with food and water available ad libitum. Blood samples were collected from the saphenous vein using Microvette CB 300 vials (Sarstedt AG & Co., Montreal, QC, Canada) embedded with lithium-heparin as an anticoagulant. Whole-blood samples were stored at −20°C, and urine and feces samples were stored at 4°C.
(§2) Two groups of four 8-week-old male rats were administered a mixture of 4:2, 6:2, 8:2, and 10:2 diPAP or monoPAP, respectively, each at about 50 mg/kg, at 4 mL/kg by oral gavage without prior fasting. […] Two control male rats were administered clean vehicle at 4 mL/kg [for details, see Supplemental Material, Table 3 (doi:10.1289/ehp.1002409)].
(§3) Blood was collected from all animals 3 days before dosing to establish background contamination. For the uptake experiment, blood samples were collected at 1, 3, and 6 hr and 1, 2, 4, 7, 10, 14, 18, and 22 days after dosing. For the elimination experiment, blood samples were collected at 2, 4, and 6 hr and 1, 2, 4, 8, 11, 15, and 18 days after dosing. On the final sampling day, the animals were sacrificed by carbon dioxide asphyxiation, and about 10 mL of blood was collected by cardiac puncture into a BD Vacutainer embedded with lithium-heparin.
(§4) The compounds of interest fall into four categories: a) the diPAP and monoPAP parent compounds, b) the saturated and unsaturated fluorotelomer carboxylic acid (FTCA and FTUCA) metabolic intermediates, c) the FTOH-sulfate and FTOH-glucuronide phase II metabolites, and d) the final PFCA biotransformation products [see Supplemental Material, Table 1 (doi:10.1289/ehp.1002409)]. We analyzed these compounds in whole blood, urine, and feces samples. For full analytical details, see Supplemental Material. All PFCAs, FTCAs, FTUCAs, and phase II metabolites were quantified by internal calibration. Because internal standards were not available, monoPAPs and diPAPs were quantified by standard addition. We performed spike and recovery experments to validate the extraction and quantification techniques used (for details, see Supplemental Material).
(§5) Analyte and matrix specific limits of detection (LODs) and limits of quantification (LOQs) are provided in Supplemental Material (doi:10.1289/ehp.1002409). For the purpose of calculating means, values < LOD were assigned a value of zero, and values < LOQ but > LOD were used unaltered but are indicated by asterisks in figures and parentheses in tables. Values are presented using the arithmetic mean ± SE. Full data sets are available in Supplemental Material. […]

[2] = Elimination experiment: monoPAP mixture by IV injection, analytes in whole blood; format: in vivo, Sprague-Dawley rats; conditions: for Cmax / Tmax: whole blood
Procedure: as §1
(§6) Two groups of four 8-week-old male rats were administered a mixture of 4:2, 6:2, 8:2, and 10:2 diPAP or monoPAP, respectively, each at about 15 mg/kg, at 2 mL/kg by intravenous (IV) injection into the lateral tail vein. The dosing vehicle was 50:50 propylene glycol:water. Two control male rats were administered clean vehicle at 2 mL/kg [for details see Supplemental Material, Table 3 (doi:10.1289/ehp.1002409)].
as §3, §4
(§7) Analyte and matrix specific limits of detection (LODs) and limits of quantification (LOQs) are provided in Supplemental Material (doi:10.1289/ehp.1002409). For the purpose of calculating means, values < LOD were assigned a value of zero, and values < LOQ but > LOD were used unaltered but are indicated by asterisks in figures and parentheses in tables. Values are presented using the arithmetic mean ± SE. Full data sets are available in Supplemental Material.

[3] = Uptake experiment: monoPAP mixture by oral gavage, analytes in whole blood; format: in vivo, Sprague-Dawley rats
Procedure: as §1, §2, §3, §4, §7

[4] = Elimination experiment: diPAP mixture by IV injection, analytes in whole blood; format: in vivo, Sprague-Dawley rats
Procedure: as §1, §6, §3, §4, §5

[5] = Renal elimination: analytes in urine collected in metabolic cages; format: in vivo, Sprague-Dawley rats; conditions: rat, in vivo
Procedure: as §1, with “4°C. […]” for “4°C.”
as §4, with “For full analytical details, see Supplemental Material.” left out, “We performed spike and recovery experments to validate the extraction and quantification techniques used (for details, see Supplemental Material).” left out

[6] = set-up: method as in Chang et al. 2008; Ohmori et al. 2003; conditions: male rats; ref Chang et al. 2008; Ohmori et al. 2003; cited from earlier work
[7] = monoPAP gavage dose, whole blood
[8] = monoPAP gavage dose, whole blood, values in parentheses < LOQ but > LOD
[9] = diPAP IV dose, whole blood, mean ± SE, values in parentheses < LOQ but > LOD

Question: For `O=C(O)C=C(F)C(F)(F)C(F)(F)C(F)(F)F` [4:2 FTUCA], which “Detection in blood (time points)” value ([1]; rat, in vivo, po) is on record?
Answer: 6 hr postdosing, but in only one animal

Question: What about the “Detection in blood (time points)” value ([2]; rat, in vivo, iv) of the same compound?
Answer: 2 hr postdosing

Question: Which Tmax [1] does the source give for `O=C(O)C(F)(F)C(F)(F)C(F)(F)C(F)(F)C(F)(F)C(F)(F)C(F)(F)C(F)(F)F` [PFNA, perfluorononanoate] here?
Answer: 8 days

Question: And the “Cmax” value [1]?
Answer: 6.4 ± 5.2 ng/g

Question: And the “Cmax” value ([2]; monoPAP IV dose)?
Answer: 2.3 ± 0.4 ng/g

Question: And the Tmax ([2]; monoPAP IV dose)?
Answer: 360 h

Question: What about the Tmax [3, 7] of the same compound?
Answer: 1 day days

Question: What about the “Cmax (ng/g)” value [3, 8] of the same compound?
Answer: (1.5 ± 0.09) ng/g

Question: What about the Tmax ([4]; diPAP IV dose, whole blood) of the same compound?
Answer: 15 days

Question: And the “Cmax (ng/g)” value [4, 9]?
Answer: (4.1 ± 3.3) ng/g

Question: Which “Detection in blood (time points)” value ([1]; after diPAP oral gavage) does the source give for `O=S(=O)(O)OCCC(F)(F)C(F)(F)C(F)(F)C(F)(F)C(F)(F)C(F)(F)C(F)(F)C(F)(F)C(F)(F)C(F)(F)F` [10:2 FTOH-sulfate] here?
Answer: at 1 and 2 days after dosing

Question: What about the “Detection in blood (time points)” value ([3]; after monoPAP oral gavage) of the same compound?
Answer: frequently detected between 6 hr and 2 days postdosing

Question: Which “Detection in blood (time points)” value ([1]; after diPAP oral gavage) does the source give for `O=C(O)CC(F)(F)C(F)(F)C(F)(F)C(F)(F)C(F)(F)C(F)(F)C(F)(F)C(F)(F)C(F)(F)C(F)(F)F` [10:2 FTCA] here?
Answer: present in the blood at the 6-hr time point

Question: What about the “Detection in blood (time points)” value ([4]; after IV diPAP dosing) of the same compound?
Answer: only in the sample collected 2 days after dosing

Question: Which results are given for `O=C(O)CCC(F)(F)C(F)(F)C(F)(F)C(F)(F)C(F)(F)F` [5:3 FTCA]?
Answer: Detection in blood (time points) ([2]; after monoPAP IV dosing): observed in the 2, 4, and 6-hr time points; Detection in blood (time points) ([3]; after monoPAP oral gavage): present in all of the samples from 2 hr to 2 days postdosing; Detection in blood (time points) ([4]; after IV diPAP dosing): in the samples from 2 hr to 2 days postdosing

Question: For `O=C(O)[C@H]1O[C@@H](OCCC(F)(F)C(F)(F)C(F)(F)C(F)(F)F)[C@H](O)[C@@H](O)[C@@H]1O` [4:2 FTOH-glucuronide], which “Detection in blood (time points)” value ([2]; rat, in vivo, iv) is on record?
Answer: in the blood 2 hr after dosing

Question: And the Observation in urine [5]?
Answer: consistently observed

Question: What about the “Detection in blood (time points)” value ([3]; rat, in vivo, po) of the same compound?
Answer: observed at 2 hr and 6 hr postdosing

Question: And the “Detection in blood (time points)” value ([4]; rat, in vivo, iv)?
Answer: in the blood 2 hr postdosing

Question: With `O=C(O)CC(F)(F)C(F)(F)C(F)(F)C(F)(F)F` [4:2 FTCA] as the compound, how does the “Detection in blood (time points)” value ([1]; after diPAP oral gavage) read?
Answer: 6 hr postdosing, but in only one animal

Question: And the “Detection in blood (time points)” value ([2]; after monoPAP IV dosing)?
Answer: 2 hr postdosing

Question: For `O=C(O)C(F)(F)C(F)(F)C(F)(F)F` [PFBA, perfluorobutanoic acid], which Tmax [1] is on record?
Answer: 1 day days

Question: What about the “Cmax” value [1] of the same compound?
Answer: 3.8 ± 1.0 ng/g

Question: And the Serum half-lives [6]?
Answer: on the order of hours

Question: And the “Half-life” value ([2]; monoPAP IV dose, about 15 mg/kg each, PFCA product in whole blood)?
Answer: 12.7 ± 3.6 h

Question: And the “Cmax” value ([2]; monoPAP IV dose)?
Answer: 7.3 ± 1.3 ng/g

Question: And the Tmax ([2]; monoPAP IV dose)?
Answer: 6 h

Question: What about the Tmax [3, 7] of the same compound?
Answer: 1 day days

Question: What about the “Cmax” value [3, 8] of the same compound?
Answer: 9.7 ± 1.9 ng/g

Question: What about the “Half-life” value ([4]; diPAP IV dose, about 15 mg/kg each, whole blood, mean ± SE) of the same compound?
Answer: 79.2 ± 28.8 h

Question: What about the Tmax ([4]; diPAP IV dose, whole blood) of the same compound?
Answer: 1 day days

Question: And the “Cmax” value [4, 9]?
Answer: 20 ± 5 ng/g

Question: With `O=C(O)CCC(F)(F)C(F)(F)C(F)(F)C(F)(F)C(F)(F)C(F)(F)C(F)(F)F` [7:3 FTCA] as the compound, how does the “Detection in blood (time points)” value ([3]; after monoPAP oral gavage) read?
Answer: present in all of the samples from 2 hr to 2 days postdosing

Question: For `O=C(O)CC(F)(F)C(F)(F)C(F)(F)C(F)(F)C(F)(F)C(F)(F)C(F)(F)C(F)(F)F` [8:2 FTCA], which “Detection in blood (time points)” value ([1]; after diPAP oral gavage) is on record?
Answer: 6 hr postdosing, but in only one animal

Question: What about the “Detection in blood (time points)” value ([3]; after monoPAP oral gavage) of the same compound?
Answer: blood samples taken 2, 4, and 6 hr postdosing
